Laboratory results as given in US9238019B2, “Antitussive and bronchodilator uses for enaminone ester” (UNIVERSITY OF KUWAIT, priority 2006, dated 2016).

Columns and labels:
[1] = test system: guinea pig bronchial preparations pre-contracted with carbachol; test: Agonist-induced relaxation of guinea pig bronchial ring preparations pre-contracted with carbachol; details: concentration response curves repeated after one hour; compared with salbutamol
Experimental: Two groups of guinea pigs, each group containing twelve guinea pigs, were decapitated under light ether anesthesia and the tracheas were dissected out with the lungs en bloc. The origin of bifurcation of the trachea into bronchioles was identified after removal of the excess connective tissue. The isolated bronchioles were cut into ring segments of 4 mm in length. The preparations were mounted in organ baths containing 25 mL Krebs-Henseleit (KH) solution at pH 7.4, maintained at 37° C. and aerated with a 95% O2 and 5% CO2 mixture. The preparations were left to stabilize for 45 minutes, changing the KH solution at 15-minute intervals. A pre-tension of 0.75 gm was applied, and a stabilization period of 45 minutes was allowed until a stable baseline tone was obtained. Isolated segments of the bronchioles were pre-contracted with carbachol (3 μM). Responses of the carbachol pre-contracted bronchial ring segments to the different agonists were determined by measurement of changes in the isometric tension, using computerized automatic organ bath analyzing instruments.
Bronchodilator responses to salbutamol (10^−9-3×10^−4 M) and enaminone ester E121 (10^−9-10^−4 M) were investigated on different preparations of the bronchioles. […] The bronchodilator responses were expressed as a percentage reduction of the carbachol induced pre-contraction. […]

guinea pigs [2] = test: Citric acid-induced cough in conscious guinea pigs (whole body plethysmography); format: in vivo, guinea pig; details: 100 mg/kg in DMSO intraperitoneally, 1 h before citric acid (0.6 M) aerosol; coughs counted over 15 min; vs vehicle group; FIG. 2
Experimental: (§1) In order to test the effectiveness of enaminone ester E121 as an antitussive, two groups of guinea pigs were established. Group 1 was a control group, which consisted of ten guinea pigs, who were administered vehicle only (100% dimethyl sulfoxide [DMSO]) intraperitoneally. Group 2 was a test group, which consisted of ten guinea pigs, who were administered enaminone E121 (100 mg/kg in DMSO) intraperitoneally (i.e., via intraperitoneal injection). Each group was separately placed in a transparent whole body plythesmography box (Buxco, Troy, N.Y.) for testing one hour after administration of the vehicle or the enaminone ester E121, respectively.
Each group was allowed a settling period in the whole body plethysmograph, after which baseline airway function was recorded for 2 minutes before administration of an aerosol. Animals in each group were then exposed to citric acid (0.6 M) aerosol for 10 minutes, during which cough and airway function were recorded, and for an additional 5 minutes thereafter (a total of 15 minutes). The aerosols were generated using a DeVilbiss aerogen ultrasonic nebulizer (DeVilbiss, Somerset, Pa.), the nebulized spray having an aerodynamic mass median diameter droplet size range of […] (manufacturer's indication). […]
Coughs were recorded from conscious, unrestrained guinea pigs manually by a trained observer as confirmation. […]

Solid-state stability = format: physicochemical; details: room temperature
guinea pigs [3] = test: Airway obstruction (enhanced pause, Penh) during citric acid aerosol exposure; format: in vivo, guinea pig; details: 100 mg/kg in DMSO intraperitoneally; citric acid (0.6 M) aerosol; vs vehicle group; FIG. 3
Experimental: as §1
Each group was allowed a settling period in the whole body plethysmograph, after which baseline airway function was recorded for 2 minutes before administration of an aerosol. Animals in each group were then exposed to citric acid (0.6 M) aerosol for 10 minutes, during which cough and airway function were recorded, and for an additional 5 minutes thereafter (a total of 15 minutes). […]
The pressure differences between the main chamber of the whole body plethysmograph containing the animals and a reference chamber (box pressure signal) were measured. […]

stability of the solid (Solid-state stability): stable solid at room temperature
SMILES: CCOC(=O)C1C(=O)C=C(Nc2ccc(Cl)cc2)CC1C (stereo not shown) [enaminone E121, ethyl 4-[(4-chlorophenyl)amino]-6-methyl-2-oxocyclohex-3-en-1-oate]
tachyphylaxis of airway smooth muscle relaxant effect [1]: lower levels of tachyphalaxis than salbutamol
number of coughs (guinea pigs [2]): substantially lower incidence of coughs
enhanced pause (Penh), bronchoconstriction or airway obstruction (guinea pigs [3]): less bronchoconstriction or airway obstruction
